Measurements taken from patent publication US8410161B2, “Thioxanthone ring system derivatives” (National Defense Medical Center, priority 2010, dated 2013).

Legend:
Format in all cases: cell-based
[1] = MTT assay, HEL299 fibroblast; conditions: human
Description: Please refer to FIG. 4C, various cell viabilities of the HEL299 cell lines can be obtained through the MTT assay while the compounds No. 1˜30 are used to treat HEL299 cell lines, wherein HEL299 cell lines are fibroblast.

[2] = test system: A3 cell lines; experiment: MTT assay, A3 cell lines (lung cancer stem cell)
Description: Please to FIG. 4B, various cell viabilities of the A3 cell lines can be obtained through the MTT assay and illustrated in FIG. 4B while the compounds No. 1˜30 are used to treat A3 cell lines, wherein A3 cell lines are lung cancer stem cell.

[3] = test system: A control cell lines; experiment: MTT assay, A control cell lines (lung cancer cell)
Description: Please refer to Table 1 and FIGS. 4A-4C. According to a MTT assay (Table 1), various cell viabilities of the A control cell lines can be obtained and illustrated in FIG. 4A while the compounds No. 2˜30 are used to treat A control cell lines, wherein A control cell lines are lung cancer cell.

Row | Compound | viability [1] [%] | cell viabilities of A3 cell lines (MTT assay) [2] [%] | cell viabilities of A control cell lines (MTT assay) [3] [%]
1 | O=c1c2ccccc2sc2c(Cl)c(Cl)ccc12 [No. 1, 3,4-dichloro-9H-thioxanthen-9-one] | 68.5 ± 12 | 83.7 ± 6.22 | –
2 | Cc1ccc(C)c(Sc2ccc3c(=O)c4ccccc4sc3c2Cl)c1 [No. 11, 4-Chloro-3-(2,5-dimethylphenylthio)-9H-thioxanthen-9-one] | 94.4 ± 10.1 | 96.9 ± 5.20 | 105 ± 2.56
3 | Cc1ccccc1Sc1ccc2c(=O)c3ccccc3sc2c1Cl [No. 7, 4-Chloro-3-(o-tolylthio)-9H-thioxanthen-9-one] | 91.1 ± 18.7 | 81.6 ± 4.98 | 103 ± 2.86
4 | COc1ccc(Sc2ccc3c(=O)c4ccccc4sc3c2Cl)cc1 [No. 17, 4-Chloro-3-(4-methoxylphenylthio)-9H-thioxanthen-9-one] | 109 ± 14.5 | 89.4 ± 1.88 | 97.1 ± 8.74
5 | O=c1c2ccccc2sc2c(Cl)c(SC3CCCC3)ccc12 [No. 5, 4-Chloro-3-(cyclopentylthio)-9H-thioxanthen-9-one] | 89.5 ± 13.7 | 107 ± 7.17 | 108 ± 7.69
6 | CCOc1cccc(Sc2ccc3c(=O)c4ccccc4sc3c2Cl)c1 [No. 19, 4-Chloro-3-(3-ethoxylphenylthio)-9H-thioxanthen-9-one] | 90.3 ± 14.4 | 98.2 ± 4.79 | 91.3 ± 1.74
7 | CCSc1ccc2c(=O)c3ccccc3sc2c1Cl [No. 2, 4-Chloro-3-(ethylthio)-9H-thioxanthen-9-one] | 34 ± 7.95 | 72.7 ± 2.60 | 85.1 ± 2.74
8 | CC(C)c1ccccc1Sc1ccc2c(=O)c3ccccc3sc2c1Cl [No. 21, 4-Chloro-3-(2-isopropylphenylthio)-9H-thioxanthen-9-one] | 107 ± 5.4 | 93.7 ± 6.01 | 83.5 ± 12.6
9 | Cc1ccc(Sc2ccc3c(=O)c4ccccc4sc3c2Cl)cc1 [No. 9, 4-Chloro-3-(p-tolylthio)-9H-thioxanthen-9-one] | 98.4 ± 12.8 | 115 ± 4.55 | 119 ± 4.69
10 | O=c1c2ccccc2sc2c(Cl)c(Sc3cccc(Cl)c3)ccc12 [No. 30, 4-Chloro-3-(3-chlorophenylthio)-9H-thioxanthen-9-one] | 101 ± 3.7 | 92.2 ± 6.17 | 97.7 ± 1.46
11 | COc1ccccc1Sc1ccc2c(=O)c3ccccc3sc2c1Cl [No. 15, 4-Chloro-3-(2-methoxylphenylthio)-9H-thioxanthen-9-one] | 73 ± 12.3 | 99.0 ± 3.41 | 85.4 ± 9.66
12 | Cc1ccc(Sc2ccc3c(=O)c4ccccc4sc3c2Cl)cc1C [No. 13, 4-Chloro-3-(3,4-dimethylphenylthio)-9H-thioxanthen-9-one] | 112 ± 11.2 | 112 ± 1.86 | 113 ± 5.86
13 | Cc1cccc(Sc2ccc3c(=O)c4ccccc4sc3c2Cl)c1 [No. 8, 4-Chloro-3-(m-tolylthio)-9H-thioxanthen-9-one] | 74.8 ± 4.04 | 116 ± 1.49 | 120 ± 1.51
14 | CC(C)c1ccc(Sc2ccc3c(=O)c4ccccc4sc3c2Cl)cc1 [No. 20, 4-Chloro-3-(4-isopropylphenylthio)-9H-thioxanthen-9-one] | 110 ± 14.3 | 93.9 ± 6.97 | 74.6 ± 11.2
15 | CCc1ccccc1Sc1ccc2c(=O)c3ccccc3sc2c1Cl [No. 18, 4-Chloro-3-(2-ethylphenylthio)-9H-thioxanthen-9-one] | 104 ± 14.2 | 77.2 ± 5.23 | 73.2 ± 10.2
16 | O=c1c2ccccc2sc2c(Cl)c(Sc3ccc(Br)cc3)ccc12 [No. 22, 3-(4-Bromophenylthio)-4-chloro-9H-thioxanthen-9-one] | 66.1 ± 0.66 | 70.8 ± 3.86 | 104 ± 1.89
